Assay results as given in publication PMC12171880, “Selectivity and Safety Characterization of a Xanthine–Imidazothiazole Lead Structure: a Novel Tryptophan Hydroxylase Inhibitor of Peripheral Serotonin Synthesis” (ACS Pharmacology & Translational Science, 2025).

Legend:
human recombinant TPH2 = biological target: T1, human recombinant TPH2 (Homo sapiens, UniProt Q8IWU9); test: TPH2 enzymatic activity assay (fluorescence, 96-well); assay type: biochemical
T1 construct: Full-length human TPH1 and TPH2 (UniProt entries P17752 and Q8IWU9); MBP (N); made in house
T1 sequence (Q8IWU9 1-490): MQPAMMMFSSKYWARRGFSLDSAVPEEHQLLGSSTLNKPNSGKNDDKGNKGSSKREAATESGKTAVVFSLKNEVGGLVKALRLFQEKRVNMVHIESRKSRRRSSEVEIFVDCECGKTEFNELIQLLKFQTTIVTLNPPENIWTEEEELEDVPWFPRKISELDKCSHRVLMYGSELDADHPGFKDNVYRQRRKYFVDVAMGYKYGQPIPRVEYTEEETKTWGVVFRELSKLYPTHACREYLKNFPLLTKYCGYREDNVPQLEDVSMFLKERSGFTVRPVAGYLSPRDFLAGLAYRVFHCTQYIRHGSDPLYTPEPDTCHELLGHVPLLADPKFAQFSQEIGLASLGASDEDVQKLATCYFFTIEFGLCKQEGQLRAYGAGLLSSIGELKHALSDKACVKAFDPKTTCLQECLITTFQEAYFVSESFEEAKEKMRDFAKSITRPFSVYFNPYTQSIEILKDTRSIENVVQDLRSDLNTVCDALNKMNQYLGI

recombinant human TH = biological target: T2, recombinant human TH (Homo sapiens, UniProt P07101); test: TH enzymatic activity assay (fluorescence, 96-well); assay type: biochemical
T2 construct: For purification of MBP-tagged full-length PAH and TH; made in house; host or cells: E. coli T7 Express (NEB) with pRARE2
Description: The TH enzymatic activity assay was performed using a 96-well plate format (Greiner). […] To initiate the reaction, L-Tyr (Fluka) was added (final concentration, 30 μM). The assay contained positive control samples (complete reaction mix, no inhibitor test compound), negative control samples (reaction mix without BH4), and an additional L-Tyr control (reaction mix without BH4, spiked with 25.5 μM or 27 μM L-Tyr) to measure the progression of the enzymatic reaction. All samples were measured in technical triplicates. The TH assay was performed at RT for 30 min. Depletion of the reaction substrate (L-Tyr) was continuously monitored at 240 s intervals by fluorescence measurements (ex.280 nm/em.306 nm) for 12 min using a Tecan Infinite 200 plate reader.
Negative control values (no enzyme or no substrate) were deducted from the positive control (full enzyme activity) and test compound values. Subsequently, the data were normalized (Pos. Ctr. = 100% of the enzyme activity). The results were further analyzed with GraphPad Prism 9 using the nonlinear regression model: log(inhibitor) vs. response−variableslope(fourparameters) which fits the following equation to the data: Y=Bottom+(Top−Bottom)/(1+10^((logIC50−X)×HillSlope))
The IC50 values were calculated from three independent experiments and are given as the mean ± SD.

A3 receptor = system: A3 receptor; design: method as in EMA/508026/2017; conditions: 10 μM; ref EMA/508026/2017; cited from earlier work
5-HT2A receptor = system: 5-HT2A receptor; design: method as in EMA/508026/2017; conditions: 10 μM; ref EMA/508026/2017; cited from earlier work
5-HT1B receptor = system: 5-HT1B receptor; design: method as in EMA/508026/2017; conditions: 10 μM; ref EMA/508026/2017; cited from earlier work
human recombinant TPH1 = biological target: T3, human recombinant TPH1 (Homo sapiens, UniProt P17752); test: TPH1 enzymatic activity assay (fluorescence, 96-well); assay type: biochemical
T3 construct: Full-length human TPH1 and TPH2 (UniProt entries P17752 and Q8IWU9); MBP (N); made in house
T3 sequence (P17752 1-444): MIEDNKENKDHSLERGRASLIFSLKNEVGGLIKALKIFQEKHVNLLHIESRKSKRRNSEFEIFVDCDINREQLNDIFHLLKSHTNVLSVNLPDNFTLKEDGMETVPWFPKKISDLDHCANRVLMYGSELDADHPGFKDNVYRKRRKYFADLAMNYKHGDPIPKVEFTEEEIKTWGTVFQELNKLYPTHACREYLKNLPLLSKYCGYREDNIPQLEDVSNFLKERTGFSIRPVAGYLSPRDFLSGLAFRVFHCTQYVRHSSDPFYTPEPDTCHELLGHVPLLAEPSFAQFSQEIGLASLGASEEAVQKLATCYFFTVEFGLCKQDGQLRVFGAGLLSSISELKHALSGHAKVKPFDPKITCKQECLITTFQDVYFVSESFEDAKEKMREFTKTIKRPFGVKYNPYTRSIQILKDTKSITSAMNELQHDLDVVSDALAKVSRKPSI

human recombinant PAH = biological target: T4, human recombinant PAH (Homo sapiens, UniProt P00439); test: PAH enzymatic activity assay (fluorescence, 96-well); assay type: biochemical
T4 construct: expression vectors for full-length human PAH (UniProt entry P00439); made in house; host or cells: E. coli T7 Express (NEB) with pRARE2
T4 sequence (P00439 1-452): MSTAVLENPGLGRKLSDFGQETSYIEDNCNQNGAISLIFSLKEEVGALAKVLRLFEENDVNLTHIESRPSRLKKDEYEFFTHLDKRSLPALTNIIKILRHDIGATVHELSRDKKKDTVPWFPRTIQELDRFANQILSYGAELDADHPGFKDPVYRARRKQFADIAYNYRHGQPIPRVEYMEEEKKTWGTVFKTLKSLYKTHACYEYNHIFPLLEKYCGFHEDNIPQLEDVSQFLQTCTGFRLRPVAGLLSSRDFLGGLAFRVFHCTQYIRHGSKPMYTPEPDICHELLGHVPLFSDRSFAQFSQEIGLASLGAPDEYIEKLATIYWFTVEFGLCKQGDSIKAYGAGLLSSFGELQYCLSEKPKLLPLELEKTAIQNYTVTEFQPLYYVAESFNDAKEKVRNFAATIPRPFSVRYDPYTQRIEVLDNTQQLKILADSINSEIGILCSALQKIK

[1] = system: 75 human receptors, enzymes, and ion channels; design: method as in EMA/508026/2017; conditions: ref EMA/508026/2017; cited from earlier work
[2] = 10 nM to 30 μM, 175 μM L-Phe, 10 μM BH4

T2 sequence (P07101 whole entry): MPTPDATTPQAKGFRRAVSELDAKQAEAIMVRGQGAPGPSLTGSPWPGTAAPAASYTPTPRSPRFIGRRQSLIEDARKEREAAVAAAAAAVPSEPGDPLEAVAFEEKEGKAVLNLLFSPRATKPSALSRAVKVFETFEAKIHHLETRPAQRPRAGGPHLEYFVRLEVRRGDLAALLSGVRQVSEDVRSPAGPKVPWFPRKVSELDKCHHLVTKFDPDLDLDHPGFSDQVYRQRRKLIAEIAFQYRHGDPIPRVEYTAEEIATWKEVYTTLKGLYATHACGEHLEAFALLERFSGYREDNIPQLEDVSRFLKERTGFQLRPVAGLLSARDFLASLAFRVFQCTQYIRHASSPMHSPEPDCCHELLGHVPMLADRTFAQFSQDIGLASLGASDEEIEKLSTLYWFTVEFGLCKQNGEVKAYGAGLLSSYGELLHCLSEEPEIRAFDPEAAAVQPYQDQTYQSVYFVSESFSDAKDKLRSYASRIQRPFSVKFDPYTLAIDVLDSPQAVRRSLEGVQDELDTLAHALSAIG

In the case of `Cc1ccn(-c2cc(Cl)ccc2[C@@H](Oc2cc(-c3ccc(C[C@H](N)C(=O)O)cc3)nc(N)n2)C(F)(F)F)n1` [LP778902, Telotristat], the “Mean TPH2 activity [%]” value (human recombinant TPH2; 3 nM) is reported as 99.93%, the “Mean TPH2 activity [%]” value (human recombinant TPH2; 10 nM) is reported as 100.78% and the “Mean TPH2 activity [%]” value (human recombinant TPH2; 30 nM) is reported as 99.88%. For the same compound, the “Mean TPH2 activity [%]” value (human recombinant TPH2; 100 nM) was 97.93%, the “Mean TPH2 activity [%]” value (human recombinant TPH2; 300 nM) was 92.18% and the “Mean TPH2 activity [%]” value (human recombinant TPH2; 1 μM) was 10.61%. The “Mean TPH2 activity [%]” value (human recombinant TPH2; 3 μM) was 3.90%, the “Mean TPH2 activity [%]” value (human recombinant TPH2; 10 μM) was 3.17% and the “Mean TH activity [%]” value (recombinant human TH; 10 nM) was 91.23%. The IC50 (recombinant human TH; 10 nM to 30 μM, 30 μM L-Tyr, 5 μM BH4) was 8.11 µM, the “Mean TH activity [%]” value (recombinant human TH; 30 nM) was 96.35% and the “Mean TH activity [%]” value (recombinant human TH; 100 nM) was 91.73%. For the same compound, the “Mean TH activity [%]” value (recombinant human TH; 300 nM) was 96.86%, the “Mean TH activity [%]” value (recombinant human TH; 1 μM) was 89.03% and the “Mean TH activity [%]” value (recombinant human TH; 3 μM) was 79.57%. The “Mean TH activity [%]” value (recombinant human TH; 10 μM) was 43.11%, the “Mean TH activity [%]” value (recombinant human TH; 30 μM) was 14.34% and the “inhibition at A3 receptor” value (A3 receptor) was “more than 50%”. The “inhibition at 5-HT2A receptor” value (5-HT2A receptor) was “more than 50%”, the “inhibition at 5-HT1B receptor” value (5-HT1B receptor) was “more than 50%” and the “Mean TPH1 activity [%]” value (human recombinant TPH1; 3 nM) was 99.75%. The “Mean TPH1 activity [%]” value (human recombinant TPH1; 10 nM) was 100.85%, the “Mean TPH1 activity [%]” value (human recombinant TPH1; 30 nM) was 101.72% and the “Mean TPH1 activity [%]” value (human recombinant TPH1; 100 nM) was 100.00%. The “Mean TPH1 activity [%]” value (human recombinant TPH1; 300 nM) was 91.38%, the “Mean TPH1 activity [%]” value (human recombinant TPH1; 1 μM) was 12.20% and the “Mean TPH1 activity [%]” value (human recombinant TPH1; 3 μM) was 4.78%. The “Mean TPH1 activity [%]” value (human recombinant TPH1; 10 μM) was 5.34%, the “Mean PAH activity [%]” value (human recombinant PAH; 10 nM) was 99.68% and the IC50 (human recombinant PAH; [2]) was 2.69 µM. The “Mean PAH activity [%]” value (human recombinant PAH; 30 nM) was 96.34%, the “Mean PAH activity [%]” value (human recombinant PAH; 100 nM) was 95.74% and the “Mean PAH activity [%]” value (human recombinant PAH; 300 nM) was 92.85%. For the same compound, the “Mean PAH activity [%]” value (human recombinant PAH; 1 μM) was 79.01%, the “Mean PAH activity [%]” value (human recombinant PAH; 3 μM) was 42.58% and the “Mean PAH activity [%]” value (human recombinant PAH; 10 μM) was 18.22%. For the same compound, the “Mean PAH activity [%]” value (human recombinant PAH; 30 μM) was 7.18% and the IC50 (human recombinant PAH; supplementary CSV) was 2.69 µM.

In the case of `CCOC(=O)[C@@H](N)Cc1ccc(-c2cc(O[C@H](c3ccc(Cl)cc3-n3ccc(C)n3)C(F)(F)F)nc(N)n2)cc1` [LX1606, Telotristat ethyl], the “number of 75 receptors with over 50% of the activity inhibited” value [1] is listed as 16, the “Mean TH activity [%]” value (recombinant human TH; 10 nM) is listed as 94.16% and the “Mean TH activity [%]” value (recombinant human TH; 30 nM) is listed as 93.57%. For the same compound, the “Mean TH activity [%]” value (recombinant human TH; 100 nM) was 94.52%, the “Mean TH activity [%]” value (recombinant human TH; 300 nM) was 91.31% and the “Mean TH activity [%]” value (recombinant human TH; 1 μM) was 96.27%. For the same compound, the “Mean TH activity [%]” value (recombinant human TH; 3 μM) was 96.83%, the “Mean TH activity [%]” value (recombinant human TH; 10 μM) was 87.53% and the “Mean TH activity [%]” value (recombinant human TH; 30 μM) was 71.72%. The “reduction of TH activity compared to the positive control” value (recombinant human TH; two highest concentrations (10 and 30 μM)) was ≤ 30%, the IC50 (human recombinant TPH1; 3 nM to 10 μM, 15 μM L-Trp, 20 μM BH4) was 1.44 µM and the “Mean PAH activity [%]” value (human recombinant PAH; 10 nM) was 96.86%. The IC50 (human recombinant PAH; [2]) was 7.91 µM, the “Mean PAH activity [%]” value (human recombinant PAH; 30 nM) was 97.35% and the “Mean PAH activity [%]” value (human recombinant PAH; 300 nM) was 94.55%. For the same compound, the “Mean PAH activity [%]” value (human recombinant PAH; 1 μM) was 91.16%, the “Mean PAH activity [%]” value (human recombinant PAH; 3 μM) was 64.20% and the “Mean PAH activity [%]” value (human recombinant PAH; 10 μM) was 37.02%. The “Mean PAH activity [%]” value (human recombinant PAH; 30 μM) was 33.74%, the “PAH activity, not reduced below” value (human recombinant PAH; highest tested concentration (30 μM)) was ≥ 30% and the IC50 (human recombinant PAH; supplementary CSV) was 7.91 µM.
